Test results taken from ChEMBL document CHEMBL1140645, “Synthesis and in vitro activity of 2-thiazolylhydrazone derivatives compared with the activity of clotrimazole against clinical isolates of Candida spp” (Bioorg Med Chem Lett, 2007).
In brackets after ≈: the same amount, converted by molar mass.

Experiments:
[1] = Cytotoxicity against human EAhy926 cells assessed as cell survival fraction at 0.05 ug/ml after 24 hrs by trypan blue exclusion test; conditions: ea.hy 926, at 0.05 µg/mL
[2] = Cytotoxicity against human EAhy926 cells assessed as cell survival fraction at 50 ug/ml after 24 hrs by trypan blue exclusion test; conditions: ea.hy 926, at 50 µg/mL
[3] = test system: Nakaseomyces glabratus; experiment: Antifungal activity against Candida glabrata after 24 hrs by broth microdilution method; assay type: functional
[4] = test system: [Candida] sake; experiment: Antifungal activity against Candida sake after 24 hrs by broth microdilution method; assay type: functional; conditions: Fermentozyma sake
[5] = test system: Candida tropicalis; experiment: Antifungal activity against Candida tropicalis after 24 hrs by broth microdilution method; assay type: functional
[6] = test system: Candida parapsilosis; experiment: Antifungal activity against Candida parapsilosis after 24 hrs by broth microdilution method; assay type: functional; conditions: Lodderomyces parapsilosis
[7] = Cytotoxicity against human EAhy926 cells assessed as cell survival fraction at 0.5 ug/ml after 24 hrs by trypan blue exclusion test; conditions: ea.hy 926, at 0.5 µg/mL
[8] = test system: Pichia kudriavzevii; experiment: Antifungal activity against Candida krusei after 24 hrs by broth microdilution method; assay type: functional
[9] = test system: Candida albicans; experiment: Antifungal activity against Candida albicans after 24 hrs by broth microdilution method; assay type: functional
[10] = Cytotoxicity against human EAhy926 cells assessed as cell survival fraction at 5 ug/ml after 24 hrs by trypan blue exclusion test; conditions: ea.hy 926, at 5 µg/mL

Compound | viability at 24 h, 0.05 ug/ml [1] | viability at 24 h, 50 ug/ml [2] | MIC [3] | MIC [4] | MIC [5] | MIC [6] | viability at 24 h, 0.5 ug/ml [7] | MIC [8] | MIC [9] | viability at 24 h, 5 ug/ml [10]
Cc1ccc(-c2csc(NN=C3CCCC3)n2)cc1 | 85.4% | 75% | 0.5 µg/mL (≈ 1.84 µM) | 16 µg/mL (≈ 59 µM) | 4 µg/mL (≈ 14.7 µM) | 128 µg/mL (≈ 472 µM) | 82% | 64 µg/mL (≈ 236 µM) | 0.25 µg/mL (≈ 0.921 µM) | 80%
Clc1ccc(-c2csc(NN=C3CCCC3)n2)cc1 | 86% | 64.9% | 0.5 µg/mL (≈ 1.71 µM) | 16 µg/mL (≈ 54.8 µM) | 32 µg/mL (≈ 110 µM) | 8 µg/mL (≈ 27.4 µM) | 89.2% | 64 µg/mL (≈ 219 µM) | 0.25 µg/mL (≈ 0.857 µM) | 81%
Brc1ccc(-c2csc(NN=C3CCCC3)n2)cc1 |  |  | 2 µg/mL (≈ 5.95 µM) | 32 µg/mL (≈ 95.2 µM) | ≥ 128 µg/mL | 128 µg/mL (≈ 381 µM) |  | > 128 µg/mL | 2 µg/mL (≈ 5.95 µM) | 
CC1CCCC/C1=N\Nc1nc(-c2cccc([N+](=O)[O-])c2)cs1 (stereo unspecified) | 88.8% | 83.3% | 16 µg/mL (≈ 48.4 µM) | 16 µg/mL (≈ 48.4 µM) | 64 µg/mL (≈ 194 µM) | 8 µg/mL (≈ 24.2 µM) | 86% | > 128 µg/mL | 0.5 µg/mL (≈ 1.51 µM) | 85.7%
COc1ccc(-c2csc(NN=C3CCCC3)n2)cc1 | 85% | 66% | 2 µg/mL (≈ 6.96 µM) | 32 µg/mL (≈ 111 µM) | 64 µg/mL (≈ 223 µM) | 8 µg/mL (≈ 27.8 µM) | 82.4% | 32 µg/mL (≈ 111 µM) | 0.5 µg/mL (≈ 1.74 µM) | 76.6%
O=[N+]([O-])c1ccc(-c2csc(NN=C3CCCC3)n2)cc1 |  |  | 0.5 µg/mL (≈ 1.65 µM) | 16 µg/mL (≈ 52.9 µM) | 64 µg/mL (≈ 212 µM) | > 128 µg/mL |  | 32 µg/mL (≈ 106 µM) | 8 µg/mL (≈ 26.5 µM) | 
CC1CCCC/C1=N\Nc1nc(-c2ccc(Br)cc2)cs1 (stereo unspecified) |  |  | 2 µg/mL (≈ 5.49 µM) | 16 µg/mL (≈ 43.9 µM) | 32 µg/mL (≈ 87.8 µM) | 8 µg/mL (≈ 22 µM) |  | 64 µg/mL (≈ 176 µM) | 4 µg/mL (≈ 11 µM) | 
CC1CCCC/C1=N\Nc1nc(-c2ccc(-c3ccccc3)cc2)cs1 (stereo unspecified) |  |  | 64 µg/mL (≈ 177 µM) | 16 µg/mL (≈ 44.3 µM) | 64 µg/mL (≈ 177 µM) | 16 µg/mL (≈ 44.3 µM) |  | 16 µg/mL (≈ 44.3 µM) | 32 µg/mL (≈ 88.5 µM) | 
Cc1ccc(-c2csc(N/N=C3\CCCC(C)C3)n2)cc1 (stereo unspecified) | 84% | 38.5% | 32 µg/mL (≈ 107 µM) | 2 µg/mL (≈ 6.68 µM) | 0.5 µg/mL (≈ 1.67 µM) | 0.5 µg/mL (≈ 1.67 µM) | 83.3% | 0.5 µg/mL (≈ 1.67 µM) | 0.5 µg/mL (≈ 1.67 µM) | 72.7%
CC1CCC/C(=N\Nc2nc(-c3ccc(C#N)cc3)cs2)C1 (stereo unspecified) | 68.8% | 25% | > 128 µg/mL | 4 µg/mL (≈ 12.9 µM) | 2 µg/mL (≈ 6.44 µM) | 0.5 µg/mL (≈ 1.61 µM) | 68.7% | 4 µg/mL (≈ 12.9 µM) | 0.5 µg/mL (≈ 1.61 µM) | 50%
c1ccc(-c2csc(NN=C3CCCCCC3)n2)cc1 | 94.7% | 54.5% | > 128 µg/mL | 16 µg/mL (≈ 56.1 µM) | 8 µg/mL (≈ 28 µM) | 8 µg/mL (≈ 28 µM) | 87.5% | 8 µg/mL (≈ 28 µM) | 0.5 µg/mL (≈ 1.75 µM) | 80%
CC1CCC/C(=N\Nc2nc(-c3ccc(Cl)cc3)cs2)C1 (stereo unspecified) | 73% | 28.6% | > 128 µg/mL | 2 µg/mL (≈ 6.25 µM) | 2 µg/mL (≈ 6.25 µM) | 1 µg/mL (≈ 3.13 µM) | 70% | 4 µg/mL (≈ 12.5 µM) | 0.5 µg/mL (≈ 1.56 µM) | 50%
COc1ccc(-c2csc(N/N=C3\CCCC(C)C3)n2)cc1 (stereo unspecified) | 83.3% | 54.5% | > 128 µg/mL | 8 µg/mL (≈ 25.4 µM) | 2 µg/mL (≈ 6.34 µM) | 1 µg/mL (≈ 3.17 µM) | 80% | 2 µg/mL (≈ 6.34 µM) | 0.5 µg/mL (≈ 1.59 µM) | 72.7%
CC1CCC/C(=N\Nc2nc(-c3ccc(F)cc3)cs2)C1 (stereo unspecified) | 80% | 52.9% | > 128 µg/mL | 8 µg/mL (≈ 26.4 µM) | 4 µg/mL (≈ 13.2 µM) | 1 µg/mL (≈ 3.3 µM) | 76.9% | 4 µg/mL (≈ 13.2 µM) | 0.5 µg/mL (≈ 1.65 µM) | 60%
c1ccc(-c2ccc(-c3csc(NN=C4CCCC4)n3)cc2)cc1 |  |  | > 128 µg/mL | 32 µg/mL (≈ 96 µM) | 64 µg/mL (≈ 192 µM) | > 128 µg/mL |  | > 128 µg/mL | 16 µg/mL (≈ 48 µM) | 
N#Cc1ccc(-c2csc(NN=C3CCCC3)n2)cc1 | 88.9% | 76% | 0.5 µg/mL (≈ 1.77 µM) | 32 µg/mL (≈ 113 µM) | 32 µg/mL (≈ 113 µM) | 128 µg/mL (≈ 453 µM) | 84.7% | 32 µg/mL (≈ 113 µM) | 2 µg/mL (≈ 7.08 µM) | 81%
O=[N+]([O-])c1cccc(-c2csc(NN=C3CCCC3)n2)c1 |  |  | 0.5 µg/mL (≈ 1.65 µM) | 16 µg/mL (≈ 52.9 µM) | 64 µg/mL (≈ 212 µM) | > 128 µg/mL |  | > 128 µg/mL | 1 µg/mL (≈ 3.31 µM) | 
